Results from ChEMBL document CHEMBL4477260, “Arylazolyl(azinyl)thioacetanilides. Part 20: Discovery of novel purinylthioacetanilides derivatives as potent HIV-1 NNRTIs via a structure-based bioisosterism approach” (Bioorg Med Chem, 2016).

Target: Human immunodeficiency virus type 1 reverse transcriptase (Human immunodeficiency virus 1, UniProt Q72547)
Assay: Inhibition of HIV-1 reverse transcriptase assessed as reduction in biotin-duTP incorporation using biotin-labeled dUTP and hybrid poly(A)-oligo (dT)15 template primer after 2 hrs by ELISA
Conditions: not given

Compound | IC50 [µM]
CC(Sc1nc2cnc(Cl)nc2n1-c1cccc2ccccc12)C(=O)Nc1ccc(S(N)(=O)=O)cc1Br (stereo unspecified) | 6.42

System: Human immunodeficiency virus 1
Assay: Antiviral activity against human HIV-1 3B infected in human MT4 cells assessed as protection from virus-induced cytopathic effect measured 5 days post infection by MTT assay
Assay type: functional, organism-based
Conditions: Human immunodeficiency virus 1, 3B, MT4, 120 h

Compound | EC50 [µM]
NC(=O)c1ccc(NC(=O)CSc2nc3cnc(Cl)nc3n2-c2cccc3ccccc23)cc1 | ≥ 28.8
NS(=O)(=O)c1ccc(NC(=O)CSc2nc3cnc(Cl)nc3n2-c2ccc(C3CC3)c3ccccc23)cc1 | 18.7
CC(Sc1nc2cnc(Cl)nc2n1-c1ccc(C2CC2)c2ccccc12)C(=O)Nc1ccc(C(N)=O)cc1Br (stereo unspecified) | 7.22
O=C(CSc1nc2cnc(Cl)nc2n1-c1cccc2ccccc12)Nc1ccc(C(F)(F)F)cc1 | > 14.3
NC(=O)c1ccc(NC(=O)CSc2nc3cnc(Cl)nc3n2-c2ccc(C3CC3)c3ccccc23)c(Br)c1 | > 11.2
CC(Sc1nc2cnc(Cl)nc2n1-c1cccc2ccccc12)C(=O)Nc1ccc(S(N)(=O)=O)cc1Cl (stereo unspecified) | 1.07
CC(Sc1nc2cnc(Cl)nc2n1-c1ccc(C2CC2)c2ccccc12)C(=O)Nc1ccc(S(N)(=O)=O)cc1Br (stereo unspecified) | 2.75
COC(=O)c1ccc(NC(=O)CSc2nc3cnc(Cl)nc3n2-c2ccc(C3CC3)c3ccccc23)c(Br)c1 | > 153
O=C(CSc1nc2cnc(Cl)nc2n1-c1ccc(C2CC2)c2ccccc12)Nc1ccc(C(F)(F)F)cc1 | > 16.2
CC(Sc1nc2cnc(Cl)nc2n1-c1cccc2ccccc12)C(=O)Nc1ccc(C(N)=O)cc1Br (stereo unspecified) | 1.86
NS(=O)(=O)c1ccc(NC(=O)CSc2nc3cnc(Cl)nc3n2-c2cccc3ccccc23)cc1 | 4.46
CC(Sc1nc2cnc(Cl)nc2n1-c1cccc2ccccc12)C(=O)Nc1ccc(S(N)(=O)=O)cc1Br (stereo unspecified) | 0.78

System: Human immunodeficiency virus 1
Assay: Antiviral activity against human HIV-1 3B harboring RES056 mutant infected in human MT4 cells assessed as protection from virus-induced cytopathic effect measured 5 days post infection by MTT assay
Assay type: functional, organism-based
Conditions: Human immunodeficiency virus 1, 3B, MT4, 120 h

Compound | EC50 [µM]
NC(=O)c1ccc(NC(=O)CSc2nc3cnc(Cl)nc3n2-c2cccc3ccccc23)cc1 | > 156
NS(=O)(=O)c1ccc(NC(=O)CSc2nc3cnc(Cl)nc3n2-c2ccc(C3CC3)c3ccccc23)cc1 | > 113
CC(Sc1nc2cnc(Cl)nc2n1-c1ccc(C2CC2)c2ccccc12)C(=O)Nc1ccc(C(N)=O)cc1Br (stereo unspecified) | 22.2
CC(Sc1nc2cnc(Cl)nc2n1-c1cccc2ccccc12)C(=O)Nc1ccc(S(N)(=O)=O)cc1Cl (stereo unspecified) | > 21.5
CC(Sc1nc2cnc(Cl)nc2n1-c1ccc(C2CC2)c2ccccc12)C(=O)Nc1ccc(S(N)(=O)=O)cc1Br (stereo unspecified) | > 15.9
CC(Sc1nc2cnc(Cl)nc2n1-c1cccc2ccccc12)C(=O)Nc1ccc(C(N)=O)cc1Br (stereo unspecified) | > 21.8
NS(=O)(=O)c1ccc(NC(=O)CSc2nc3cnc(Cl)nc3n2-c2cccc3ccccc23)cc1 | > 104
CC(Sc1nc2cnc(Cl)nc2n1-c1cccc2ccccc12)C(=O)Nc1ccc(S(N)(=O)=O)cc1Br (stereo unspecified) | > 19

System: not listed separately
Assay: Cytotoxicity against mock-infected human MT4 cells assessed as reduction of cell viability after 5 days by MTT assay
Assay type: cell-based
Conditions: not given

Compound | CC50 at 120 h [µM]
NC(=O)c1ccc(NC(=O)CSc2nc3cnc(Cl)nc3n2-c2cccc3ccccc23)cc1 | 156
NS(=O)(=O)c1ccc(NC(=O)CSc2nc3cnc(Cl)nc3n2-c2ccc(C3CC3)c3ccccc23)cc1 | 113
CC(Sc1nc2cnc(Cl)nc2n1-c1ccc(C2CC2)c2ccccc12)C(=O)Nc1ccc(C(N)=O)cc1Br (stereo unspecified) | 55.9
O=C(CSc1nc2cnc(Cl)nc2n1-c1cccc2ccccc12)Nc1ccc(C(F)(F)F)cc1 | 14.2
NC(=O)c1ccc(NC(=O)CSc2nc3cnc(Cl)nc3n2-c2ccc(C3CC3)c3ccccc23)c(Br)c1 | 11.2
CC(Sc1nc2cnc(Cl)nc2n1-c1cccc2ccccc12)C(=O)Nc1ccc(S(N)(=O)=O)cc1Cl (stereo unspecified) | 21.5
CC(Sc1nc2cnc(Cl)nc2n1-c1ccc(C2CC2)c2ccccc12)C(=O)Nc1ccc(S(N)(=O)=O)cc1Br (stereo unspecified) | 15.9
COC(=O)c1ccc(NC(=O)CSc2nc3cnc(Cl)nc3n2-c2ccc(C3CC3)c3ccccc23)c(Br)c1 | 153
O=C(CSc1nc2cnc(Cl)nc2n1-c1ccc(C2CC2)c2ccccc12)Nc1ccc(C(F)(F)F)cc1 | 16.2
CC(Sc1nc2cnc(Cl)nc2n1-c1cccc2ccccc12)C(=O)Nc1ccc(C(N)=O)cc1Br (stereo unspecified) | 21.8
NS(=O)(=O)c1ccc(NC(=O)CSc2nc3cnc(Cl)nc3n2-c2cccc3ccccc23)cc1 | 104
CC(Sc1nc2cnc(Cl)nc2n1-c1cccc2ccccc12)C(=O)Nc1ccc(S(N)(=O)=O)cc1Br (stereo unspecified) | 19

System: not listed separately
Assay: Selectivity index, ratio of CC50 for mock-infected human MT4 cells to EC50 for human HIV-1 3B infected in human MT4 cells
Assay type: toxicity, cell-based
Conditions: MT4 cells (mock-infected for CC50, HIV-1-infected for EC50)

Compound | selectivity ratio
NC(=O)c1ccc(NC(=O)CSc2nc3cnc(Cl)nc3n2-c2cccc3ccccc23)cc1 | ≤ 5
NS(=O)(=O)c1ccc(NC(=O)CSc2nc3cnc(Cl)nc3n2-c2ccc(C3CC3)c3ccccc23)cc1 | 6
CC(Sc1nc2cnc(Cl)nc2n1-c1ccc(C2CC2)c2ccccc12)C(=O)Nc1ccc(C(N)=O)cc1Br (stereo unspecified) | 8
O=C(CSc1nc2cnc(Cl)nc2n1-c1cccc2ccccc12)Nc1ccc(C(F)(F)F)cc1 | < 1
NC(=O)c1ccc(NC(=O)CSc2nc3cnc(Cl)nc3n2-c2ccc(C3CC3)c3ccccc23)c(Br)c1 | < 1
CC(Sc1nc2cnc(Cl)nc2n1-c1cccc2ccccc12)C(=O)Nc1ccc(S(N)(=O)=O)cc1Cl (stereo unspecified) | 20
CC(Sc1nc2cnc(Cl)nc2n1-c1ccc(C2CC2)c2ccccc12)C(=O)Nc1ccc(S(N)(=O)=O)cc1Br (stereo unspecified) | 6
COC(=O)c1ccc(NC(=O)CSc2nc3cnc(Cl)nc3n2-c2ccc(C3CC3)c3ccccc23)c(Br)c1 | < 1
O=C(CSc1nc2cnc(Cl)nc2n1-c1ccc(C2CC2)c2ccccc12)Nc1ccc(C(F)(F)F)cc1 | < 1
CC(Sc1nc2cnc(Cl)nc2n1-c1cccc2ccccc12)C(=O)Nc1ccc(C(N)=O)cc1Br (stereo unspecified) | 12
NS(=O)(=O)c1ccc(NC(=O)CSc2nc3cnc(Cl)nc3n2-c2cccc3ccccc23)cc1 | 23
CC(Sc1nc2cnc(Cl)nc2n1-c1cccc2ccccc12)C(=O)Nc1ccc(S(N)(=O)=O)cc1Br (stereo unspecified) | 24

System: not listed separately
Assay: Selectivity index, ratio of CC50 for mock-infected human MT4 cells to EC50 for human HIV-1 3B harboring RES056 mutant infected in human MT4 cells
Assay type: toxicity, cell-based
Conditions: MT4 cells (mock-infected for CC50, HIV-1-infected for EC50)

Compound | selectivity ratio
NC(=O)c1ccc(NC(=O)CSc2nc3cnc(Cl)nc3n2-c2cccc3ccccc23)cc1 | < 1
NS(=O)(=O)c1ccc(NC(=O)CSc2nc3cnc(Cl)nc3n2-c2ccc(C3CC3)c3ccccc23)cc1 | < 1
CC(Sc1nc2cnc(Cl)nc2n1-c1ccc(C2CC2)c2ccccc12)C(=O)Nc1ccc(C(N)=O)cc1Br (stereo unspecified) | 10
CC(Sc1nc2cnc(Cl)nc2n1-c1cccc2ccccc12)C(=O)Nc1ccc(S(N)(=O)=O)cc1Cl (stereo unspecified) | < 1
CC(Sc1nc2cnc(Cl)nc2n1-c1ccc(C2CC2)c2ccccc12)C(=O)Nc1ccc(S(N)(=O)=O)cc1Br (stereo unspecified) | 1
O=C(CSc1nc2cnc(Cl)nc2n1-c1ccc(C2CC2)c2ccccc12)Nc1ccc(C(F)(F)F)cc1 | < 1
CC(Sc1nc2cnc(Cl)nc2n1-c1cccc2ccccc12)C(=O)Nc1ccc(C(N)=O)cc1Br (stereo unspecified) | < 1
NS(=O)(=O)c1ccc(NC(=O)CSc2nc3cnc(Cl)nc3n2-c2cccc3ccccc23)cc1 | < 1
CC(Sc1nc2cnc(Cl)nc2n1-c1cccc2ccccc12)C(=O)Nc1ccc(S(N)(=O)=O)cc1Br (stereo unspecified) | < 1

System: Human immunodeficiency virus 1
Assay: Antiviral activity against human HIV-1 3B harboring reverse transcriptase L100I mutant infected in human MT4 cells assessed as protection from virus-induced cytopathic effect measured 5 days post infection by MTT assay
Assay type: functional, organism-based
Conditions: Human immunodeficiency virus 1, 3B, MT4, 120 h

Compound | EC50 [µM]
CC(Sc1nc2cnc(Cl)nc2n1-c1ccc(C2CC2)c2ccccc12)C(=O)Nc1ccc(C(N)=O)cc1Br (stereo unspecified) | 5.64

System: Human immunodeficiency virus 1
Assay: Antiviral activity against human HIV-1 3B harboring reverse transcriptase K103N mutant infected in human MT4 cells assessed as protection from virus-induced cytopathic effect measured 5 days post infection by MTT assay
Assay type: functional, organism-based
Conditions: Human immunodeficiency virus 1, 3B, MT4, 120 h

Compound | EC50 [µM]
CC(Sc1nc2cnc(Cl)nc2n1-c1ccc(C2CC2)c2ccccc12)C(=O)Nc1ccc(C(N)=O)cc1Br (stereo unspecified) | ≥ 48.1

System: Human immunodeficiency virus 1
Assay: Antiviral activity against human HIV-1 3B harboring reverse transcriptase Y181C mutant infected in human MT4 cells assessed as protection from virus-induced cytopathic effect measured 5 days post infection by MTT assay
Assay type: functional, organism-based
Conditions: Human immunodeficiency virus 1, 3B, MT4, 120 h

Compound | EC50 [µM]
CC(Sc1nc2cnc(Cl)nc2n1-c1ccc(C2CC2)c2ccccc12)C(=O)Nc1ccc(C(N)=O)cc1Br (stereo unspecified) | > 55.8

System: Human immunodeficiency virus 1
Assay: Antiviral activity against human HIV-1 3B harboring reverse transcriptase Y188L mutant infected in human MT4 cells assessed as protection from virus-induced cytopathic effect measured 5 days post infection by MTT assay
Assay type: functional, organism-based
Conditions: Human immunodeficiency virus 1, 3B, MT4, 120 h

Compound | EC50 [µM]
CC(Sc1nc2cnc(Cl)nc2n1-c1ccc(C2CC2)c2ccccc12)C(=O)Nc1ccc(C(N)=O)cc1Br (stereo unspecified) | > 55.8

System: Human immunodeficiency virus 1
Assay: Antiviral activity against human HIV-1 3B harboring reverse transcriptase E138K mutant infected in human MT4 cells assessed as protection from virus-induced cytopathic effect measured 5 days post infection by MTT assay
Assay type: functional, organism-based
Conditions: Human immunodeficiency virus 1, 3B, MT4, 120 h

Compound | EC50 [µM]
CC(Sc1nc2cnc(Cl)nc2n1-c1ccc(C2CC2)c2ccccc12)C(=O)Nc1ccc(C(N)=O)cc1Br (stereo unspecified) | ≥ 65.1

System: Human immunodeficiency virus 1
Assay: Antiviral activity against human HIV-1 3B harboring reverse transcriptase F227L/V106A double mutant infected in human MT4 cells assessed as protection from virus-induced cytopathic effect measured 5 days post infection by MTT assay
Assay type: functional, organism-based
Conditions: Human immunodeficiency virus 1, 3B, MT4, 120 h

Compound | EC50 [µM]
CC(Sc1nc2cnc(Cl)nc2n1-c1ccc(C2CC2)c2ccccc12)C(=O)Nc1ccc(C(N)=O)cc1Br (stereo unspecified) | > 55.8

System: not listed separately
Assay: Selectivity index, ratio of CC50 for mock-infected human MT4 cells to EC50 for human HIV-1 3B harboring L100I mutant infected in human MT4 cells
Assay type: toxicity, cell-based
Conditions: MT4 cells (mock-infected for CC50, HIV-1-infected for EC50)

Compound | selectivity ratio
CC(Sc1nc2cnc(Cl)nc2n1-c1ccc(C2CC2)c2ccccc12)C(=O)Nc1ccc(C(N)=O)cc1Br (stereo unspecified) | 8

System: not listed separately
Assay: Selectivity index, ratio of CC50 for mock-infected human MT4 cells to EC50 for human HIV-1 3B harboring K103N mutant infected in human MT4 cells
Assay type: toxicity, cell-based
Conditions: MT4 cells (mock-infected for CC50, HIV-1-infected for EC50)

Compound | selectivity ratio
CC(Sc1nc2cnc(Cl)nc2n1-c1ccc(C2CC2)c2ccccc12)C(=O)Nc1ccc(C(N)=O)cc1Br (stereo unspecified) | ≤ 1

System: not listed separately
Assay: Selectivity index, ratio of CC50 for mock-infected human MT4 cells to EC50 for human HIV-1 3B harboring Y181C mutant infected in human MT4 cells
Assay type: toxicity, cell-based
Conditions: MT4 cells (mock-infected for CC50, HIV-1-infected for EC50)

Compound | selectivity ratio
CC(Sc1nc2cnc(Cl)nc2n1-c1ccc(C2CC2)c2ccccc12)C(=O)Nc1ccc(C(N)=O)cc1Br (stereo unspecified) | < 1

System: not listed separately
Assay: Selectivity index, ratio of CC50 for mock-infected human MT4 cells to EC50 for human HIV-1 3B harboring Y188L mutant infected in human MT4 cells
Assay type: toxicity, cell-based
Conditions: MT4 cells (mock-infected for CC50, HIV-1-infected for EC50)

Compound | selectivity ratio
CC(Sc1nc2cnc(Cl)nc2n1-c1ccc(C2CC2)c2ccccc12)C(=O)Nc1ccc(C(N)=O)cc1Br (stereo unspecified) | < 1

System: not listed separately
Assay: Selectivity index, ratio of CC50 for mock-infected human MT4 cells to EC50 for human HIV-1 3B harboring E138K mutant infected in human MT4 cells
Assay type: toxicity, cell-based
Conditions: MT4 cells (mock-infected for CC50, HIV-1-infected for EC50)

Compound | selectivity ratio
CC(Sc1nc2cnc(Cl)nc2n1-c1ccc(C2CC2)c2ccccc12)C(=O)Nc1ccc(C(N)=O)cc1Br (stereo unspecified) | ≤ 1

System: not listed separately
Assay: Selectivity index, ratio of CC50 for mock-infected human MT4 cells to EC50 for human HIV-1 3B harboring F227L/V106A double mutant infected in human MT4 cells
Assay type: toxicity, cell-based
Conditions: MT4 cells (mock-infected for CC50, HIV-1-infected for EC50)

Compound | selectivity ratio
CC(Sc1nc2cnc(Cl)nc2n1-c1ccc(C2CC2)c2ccccc12)C(=O)Nc1ccc(C(N)=O)cc1Br (stereo unspecified) | < 1
